This passage reports Activity results from ChEMBL document CHEMBL6121056, “Aculeapyridones A-Q, Pyranopyridone Alkaloids with Protective Effects against Acetaminophen-Induced Acute Liver Injury Discovered from a Coculture of Aspergillus aculeatinus WHUF0198 and a Penicillium sp” (2025).

Assay type in all cases: functional, Mus musculus
For assay [1], the system named is AML12. Description: Protection against acetaminophen-induced acute liver injury in AML12 cells at 10 uM incubated for 12 hrs by MTT assay relative to control. (In general: Formazan colour is commonly taken as a measure of viable cells.)
Assay [2] concerns AML12. Description: Protection against acetaminophen-induced acute liver injury in AML12 cells at 5 uM incubated for 12 hrs by MTT assay relative to control.
Assay [3] concerns AML12. Put plainly: Cytoprotective activity against acetaminophen-induced acute liver injury in AML12 cells assessed as reduction in ALT level at 5 uM measured after 12 hrs relative to control. Details: scale not given: the % may be the effect or the level left.

As for `CC[C@@H](C)/C=C/C=C/C=C(\C)[C@@H]1Oc2c(-c3ccc(O)cc3)c[nH]c(=O)c2C(=O)[C@H]1C`, the Activity in the assay with AML12 [1] is on record as -50%; with AML12 [2], -10%.

Consider `COn1ccc2c(c1=O)[C@@H](O)[C@@H](C)[C@H](/C(C)=C/C=C/C=C/[C@H](C)CC(=O)O)O2`, for which the Activity with AML12 [1] is given as 50%; in the assay with AML12 [2], 132%; in the assay on AML12 [3], 115%.

Regarding `CC[C@@H](C)/C=C/C=C/C=C(\C)[C@@H]1Oc2cc[nH]c(=O)c2[C@@H](O)[C@H]1C`, the Activity in the assay with AML12 [1] is reported as -6.5%; with AML12 [2] it was 94%; in the assay with AML12 [3], 29%.

`CO[C@@H]1c2c(cc[nH]c2=O)O[C@@H](/C(C)=C/C=C/C=C/[C@H](CO)CCO)[C@@H]1C`: the Activity in the assay on AML12 [1] is 59%; in the assay with AML12 [2], 20%; with AML12 [3], 99%.

Regarding `CC[C@@H](/C=C/C=C/C=C(\C)[C@@H]1Oc2cc[nH]c(=O)c2[C@@H](OC)[C@H]1C)C(=O)O`, the Activity in the assay on AML12 [1] is -43%; in the assay with AML12 [2] it was 164%; with AML12 [3] it was 96%.

As for `CC[C@H](/C=C/C=C/C=C(\C)[C@@H]1Oc2cc[nH]c(=O)c2[C@@H](O)[C@H]1C)C(=O)O`, the Activity in the assay with AML12 [1] was 56%; in the assay on AML12 [2], 7%; in the assay with AML12 [3], 118%.

With `C\C(=C/C=C/C=C/C(C)CC(=O)O)[C@@H]1Oc2cc[nH]c(=O)c2[C@@H](O)C1C` (stereo partly specified), the Activity in the assay with AML12 [1] came out at 26%; in the assay on AML12 [2], 66%; in the assay on AML12 [3], 74%.

For `CC[C@H](/C=C/C=C/C=C(\C)[C@@H]1Oc2ccn(OC)c(=O)c2[C@@H](O)[C@H]1C)CO`, the figures for the Activity with AML12 [1], with AML12 [2] and in the assay with AML12 [3] were 64%, 61% and 71%, respectively.

In the case of `CO[C@@H]1c2c(cc[nH]c2=O)O[C@@H](/C(C)=C/C=C/C=C/[C@H](C)CC(=O)O)[C@@H]1C`, the Activity in the assay on AML12 [1] was found to be 18%; in the assay on AML12 [2], 120%; in the assay with AML12 [3] it was 86%.

For `CC[C@H](/C=C/C=C/C=C(\C)[C@@H]1Oc2ccn(OC)c(=O)c2[C@@H](O)[C@H]1C)C(=O)O`, the results for the Activity with AML12 [1], in the assay on AML12 [2] and with AML12 [3] were -14%, 74% and 52%, respectively.

With `CC[C@H](/C=C/C=C/C=C(\C)[C@@H]1Oc2ccn(OC)c(=O)c2[C@@H](O)[C@H]1C)COC=O`, the values for the Activity in the assay with AML12 [1], in the assay on AML12 [2] and in the assay on AML12 [3] were 21%, 144% and 79%, respectively.

Turning to `CC[C@H](/C=C/C=C/C=C(\C)[C@@H]1Oc2cc[nH]c(=O)c2[C@@H](O)[C@H]1C)CO`, the figures for the Activity with AML12 [1], with AML12 [2] and with AML12 [3] were 100%, 17% and 97%, respectively.

As to `CC[C@H](/C=C/C=C/C=C(\C)[C@@H]1Oc2cc[nH]c(=O)c2[C@@H](OC)[C@H]1C)COC=O`, the Activity is -32% in the assay with AML12 [1] and 15% with AML12 [2].

On to `CC[C@H](/C=C/C=C/C=C(\C)[C@@H]1Oc2cc[nH]c(=O)c2[C@@H](OC)[C@H]1C)CO`, for which the Activity in the assay with AML12 [1] is 53%; in the assay with AML12 [2], 125%; with AML12 [3] it was 82%.

`CC[C@@H](C)/C=C/C=C/C=C(\C)[C@@H]1Oc2cc[nH]c(=O)c2[C@@H](OC)[C@H]1C`: the Activity in the assay on AML12 [1] stood at 192%; with AML12 [2], 30%; in the assay with AML12 [3], 54%.

On to `CC(=O)N[C@@H](CS)C(=O)O` [ACETYLCYSTEINE], for which the Activity in the assay on AML12 [1] is listed as 165%; in the assay on AML12 [2] it was 150%; in the assay with AML12 [3], 45%.
